Data published in the supplement of paper PMC5579334.
± gives the standard deviation of the averaged measurements.

Experiments:
S1507-2 [1] = test: % inhibition of CellTiter-Glo viability at highest tested concentration (72 h), relative to DMSO and benzethonium chloride controls; higher = more inhibition
How it was run: (§1)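 Viability of MPNST cell lines and primary human Schwann cells was read as CellTiter-Glo ATP luminescence after 72 h at 37 °C, 5% CO2, in 384-well plates seeded with 750–1000 cells per well. Each compound had been preprinted at five concentrations in 10-fold steps. Signals were scaled between vehicle and positive-control wells, duplicates averaged where present, and fitted with four-parameter logistic curves. Drug sensitivity score and relative IC50 (censored at the top concentration) come from those fits, and percent inhibition is taken at the top concentration.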

[2] = tested on: HSC2 (primary human Schwann cells); test: as above
How it was run: as §1

HS-PSS [3] = test: as above
How it was run: as §1

STS26T [4] = test: as above
How it was run: as §1

HS-Sch-2 [5] = test: as above
How it was run: as §1

YST-1 [6] = test: as above
How it was run: as §1

ST8814 [7] = test: as above
How it was run: as §1

S462 [8] = test: as above
How it was run: as §1

[9] = tested on: HSC1 (primary human Schwann cells); test: as above
How it was run: as §1

S1507-2 [10] = test: drug sensitivity score (DSS, CellTox-Green cytotoxicity, 72 h) (DSS (dimensionless)); higher = more cytotoxic; extreme values may be limits of the assay
How it was run: (§2)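 MPNST cell lines and primary human Schwann cells were grown for 72 h at 37 °C in 384-well plates containing five 10-fold compound dilutions. CellTox-Green, added before seeding at a final 1:1000 dilution, gave fluorescence from DNA released by disrupted cells, and signals were scaled to vehicle and positive-control wells. Curves were fitted with a four-parameter logistic model. Drug sensitivity score and relative IC50 come from these fits, with IC50 censored at the top concentration.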

[11] = tested on: HSC2 (primary human Schwann cells); test: as above
How it was run: as §2

HS-PSS [12] = test: as above
How it was run: as §2

STS26T [13] = test: as above
How it was run: as §2

ST8814 [14] = test: as above
How it was run: as §2

[15] = tested on: HSC1 (primary human Schwann cells); test: as above
How it was run: as §2

S1507-2 [16] = test: drug sensitivity score (DSS, CellTiter-Glo viability, 72 h) (DSS (dimensionless)); higher = more sensitive; extreme values may be limits of the assay
How it was run: as §1

[17] = tested on: HSC2 (primary human Schwann cells); test: as above
How it was run: as §1

HS-PSS [18] = test: as above
How it was run: as §1

STS26T [19] = test: as above
How it was run: as §1

HS-Sch-2 [20] = test: as above
How it was run: as §1

YST-1 [21] = test: as above
How it was run: as §1

ST8814 [22] = test: as above
How it was run: as §1

S462 [23] = test: as above
How it was run: as §1

[24] = tested on: HSC1 (primary human Schwann cells); test: as above
How it was run: as §1

SMILES	% inhibition (S1507-2 [1]) [%]	% inhibition [2] [%]	% inhibition (HS-PSS [3]) [%]	% inhibition (STS26T [4]) [%]	% inhibition (HS-Sch-2 [5]) [%]	% inhibition (YST-1 [6]) [%]	% inhibition (ST8814 [7]) [%]	% inhibition (S462 [8]) [%]	% inhibition [9] [%]	drug sensitivity score (S1507-2 [10])	drug sensitivity score [11]	drug sensitivity score (HS-PSS [12])	drug sensitivity score (STS26T [13])	drug sensitivity score (ST8814 [14])	drug sensitivity score [15]	drug sensitivity score (S1507-2 [16])	drug sensitivity score [17]	drug sensitivity score (HS-PSS [18])	drug sensitivity score (STS26T [19])	drug sensitivity score (HS-Sch-2 [20])	drug sensitivity score (YST-1 [21])	drug sensitivity score (ST8814 [22])	drug sensitivity score (S462 [23])	drug sensitivity score [24]
Nc1nc(Cl)nc2c1ncn2[C@@H]1O[C@H](CO)[C@@H](O)[C@@H]1F [Clofarabine] (max concentration tested 10000 nM)	88.7 ± 1.4	85.7	76	87.7	82.1	83.9	98.8	103 ± 1.1	79.4	3.61 ± 1.3	15.8	6.52	6.47	8.58	15.7	11 ± 1.9	17.5	13	15.8	18.2	14.8	12.8	17.2 ± 2.3	14.4
N#Cc1ccc(COC[C@H]2O[C@@H](n3c(NCc4ccc(Cl)c(Cl)c4)nc4c(N)ncnc43)[C@H](O)[C@@H]2O)cc1 (max concentration tested 10000 nM)	7.48 ± 0.46	44.2	21.7	30.7	9.8	28.8	8.16	11.3 ± 7.2	41.6	0	0	0	0.0103	0	0	0	8	0.47	3.06	0	2.63	0	0.314 ± 0.44	5.32
O=c1[nH]cc(F)c(=O)[nH]1 [Fluorouracil] (max concentration tested 10000 nM)	11 ± 7.6	55.5	29.4	53.4	35	25.5	4.62	27.2 ± 7	43.5	0	0	0	0	0	0	0.493 ± 0.7	2.86	1.09	6.56	1.83	0.94	0	0.808 ± 0.45	1.94
CS(=O)(=O)c1ccc(C2=C(c3ccccc3)C(=O)OC2)cc1 [Rofecoxib] (max concentration tested 10000 nM)	3.17 ± 6.5	-0.797	-0.36	-0.415	-5.42	1.11	3.44	-1.92 ± 0.69	2.15	0	0	0	0	0	0	0	0	0	0	0	0	0	0	0
CCN(CC)CCOc1ccc(/C(=C(/Cl)c2ccccc2)c2ccccc2)cc1 [Clomifene] (max concentration tested 10000 nM)	95.46 ± 0.71	91.5	87.8	92.4	98.5	44.2	96.9	77.6 ± 2.6	25.9	4.48 ± 1.9	7.92	5.71	6.15	6.68	0	6.57 ± 0.14	6.36	6.39	6.27	5.21	1.77	6.53	5.36 ± 0.27	2.36
O=C(O)CCCCC(CCSCc1ccccc1)SCc1ccccc1 (centres undefined) [CPI-613] (max concentration tested 10000 nM)	-8.09 ± 10	-1.05	17	-2.54	-6.28	14.3	0.691	-9.93 ± 9.6	-3.11	0.502 ± 0.71	0	0	0	0	0	0	0	0.36	0	0	0.06	0	0	0
